From ChEMBL document CHEMBL1147376, “Isolation and structure elucidation of 34-sulfatobastadin 13, an inhibitor of the endothelin A receptor, from a marine sponge of the genus Ianthella” (J Nat Prod, 1993) come the findings set out here.

As usually defined, the inhibition is the share of the control response that was lost under treatment. A lower inhibition goes with a response near the control. The IC50 is the concentration needed to halve the response being measured. Read a high IC50 as a need for much substance. A word on the MIC: it is the lowest concentration that inhibits growth of the organism. Higher therefore signals a need for much substance.

Converted amounts (≈) assume the structure as drawn. The source made the active and inactive calls. No cut-off for these calls is given here.

Assay [1] has as its target T1, Endothelin receptor type B (Rattus norvegicus) (UniProt P21451).
T1 sequence (whole entry): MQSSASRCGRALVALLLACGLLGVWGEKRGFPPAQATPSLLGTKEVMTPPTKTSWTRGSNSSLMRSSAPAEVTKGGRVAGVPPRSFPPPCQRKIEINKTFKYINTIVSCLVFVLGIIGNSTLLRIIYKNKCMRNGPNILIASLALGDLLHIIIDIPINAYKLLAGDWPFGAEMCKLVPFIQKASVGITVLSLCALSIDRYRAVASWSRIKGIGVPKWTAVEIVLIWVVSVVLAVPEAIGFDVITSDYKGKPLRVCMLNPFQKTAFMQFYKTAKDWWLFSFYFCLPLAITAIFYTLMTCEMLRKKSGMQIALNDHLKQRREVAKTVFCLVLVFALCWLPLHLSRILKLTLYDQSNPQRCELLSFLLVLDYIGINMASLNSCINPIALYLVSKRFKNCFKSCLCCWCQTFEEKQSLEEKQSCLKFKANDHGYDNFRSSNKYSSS
Description: Displacement of [125]ET3 from ETB receptor in Sprague-Dawley rat cerebellum at 70 uM.

The target of the next assay is T2, Endothelin-1 receptor (Sus scrofa, UniProt Q29010).
T2 sequence (Q29010 whole entry): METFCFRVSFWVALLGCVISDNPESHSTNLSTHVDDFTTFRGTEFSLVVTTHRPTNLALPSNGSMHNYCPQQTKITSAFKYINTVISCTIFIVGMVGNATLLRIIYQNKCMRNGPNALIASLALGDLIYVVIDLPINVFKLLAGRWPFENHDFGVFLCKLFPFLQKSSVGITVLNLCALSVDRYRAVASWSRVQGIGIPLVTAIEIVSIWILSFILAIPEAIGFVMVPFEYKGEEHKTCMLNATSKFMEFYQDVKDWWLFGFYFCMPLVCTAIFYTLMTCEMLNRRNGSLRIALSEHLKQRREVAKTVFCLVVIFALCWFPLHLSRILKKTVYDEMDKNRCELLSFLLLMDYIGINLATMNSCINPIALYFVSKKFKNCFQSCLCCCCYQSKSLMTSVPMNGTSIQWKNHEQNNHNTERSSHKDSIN
The assay is described as follows: Displacement of [125]ET1 from ETA receptor in pig thoracic aorta.

For assay [2], the system named is Bacillus subtilis. The assay is described as follows: Antibacterial activity against Bacillus subtilis ATCC 6633 at 50 ug/mL after 18 to 24 hrs by twofold dilution test. Type of assay: functional, organism-based.
Assay [3] has as its target T3, Endothelin-1 receptor (Sus scrofa) (UniProt Q29010).
T3 sequence (whole entry): T2 sequence (Q29010 whole entry)
The assay is described as follows: Displacement of [125]ET1 from ETA receptor in pig thoracic aorta at 70 uM. Type of assay: tissue-based.

The test system of assay [4] is Bacillus subtilis. Description: Antibacterial activity against Bacillus subtilis ATCC 6633 after 18 to 24 hrs by twofold dilution test. Type of assay: functional.

Regarding `O=C1NCCc2ccc(c(Br)c2)Oc2cc(ccc2O)CCNC(=O)/C(=N/O)Cc2cc(Br)c(OS(=O)(=O)O)c(c2)Oc2c(Br)cc(cc2Br)C/C1=N\O`, the inhibition in assay [1] is 27%. Besides, the IC50 at Endothelin-1 receptor amounted to 39 µM. Moreover, the result in the assay on Bacillus subtilis [2] was inactive.
`O=C1NCCc2ccc(c(Br)c2)Oc2cc(ccc2O)CCNC(=O)/C(=N/O)Cc2cc(Br)c(O)c(c2)Oc2c(Br)cc(cc2Br)C/C1=N\O` [BASTADIN 13]: the inhibition is 30% in assay [1] and 32% in assay [3]. Further, the MIC with Bacillus subtilis [4] was determined as 6 µg/mL (≈ 6.38 µM).
